# Reference: patent US9499550B2 (BRISTOL-MYERS SQUIBB COMPANY, priority 2012, dated 2016)
# pEC50: −log10 of the molar value. Read-outs that look alike come from different tables or passages of the source.
# What was measured:
# [1] = test system: HCV genotype 1a (H77 strain) replicon in HUH-7 cells; assay: HCV replicon luciferase reporter assay, genotype 1a; assay type: cell-based; conditions: Hepatitis C virus, Huh-7, 72 h, HCV genotype 1a replicon luciferase, 3 days incubation
# How it was run: (§1)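 Replicon inhibition for both genotypes was measured as Renilla luciferase signal (EnduRen, 7.5 μM final, 2 h) after 3-day, 37° C exposure of replicon-bearing HUH-7 cells in 4% FCS DMEM, 0.5% DMSO. The 1b construct carries S1179I; the 1a H77 construct carries P1496L and S2204I. Twenty-point, 3-fold dilutions were fitted four-parametrically for EC50, and CC50 was taken from multiplexed Cell Titer-Blue.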
# [2] = test system: HCV genotype 1b (Con1) replicon in HUH-7 cells; assay: HCV replicon luciferase reporter assay, genotype 1b; assay type: cell-based; conditions: Hepatitis C virus, Huh-7, 72 h, HCV genotype 1b replicon luciferase, 3 days incubation
# How it was run: as §1
# [3] = GETYPE1A, read-out: LE_1a (EC50, range)
# [4] = GETYPE1B, read-out: LE_1b (EC50, range)
SMILES,"pEC50 ([1]; read-out: LE_1a (EC50, range))","pEC50 ([2]; read-out: LE_1b (EC50, range))","pEC50 [1, 3]","pEC50 [2, 4]",also measured
"CC[C@@H]1C[C@H](C)CC/C=C\[C@@H]2C[C@@]2(C(=O)NS(=O)(=O)C2CC2)NC(=O)[C@@H]2C[C@@H](Oc3ncnc4cc(OC)ccc34)CN2C(=O)[C@H]1NC(=O)OC(C)(C)C [Compound 4239, tert-butyl ((2R,6S,7R,9R,13aS,14aR,16aS,Z)-14a-((cyclopropylsulfonyl)carbamoyl)-7-ethyl-2-((7-methoxyquinazolin-4-yl)oxy)-9-methyl-5,16-dioxo-1,2,3,5,6,7,8,9,10,11,13a,14,14a,15,16,16a-hexadecahydrocyclopropa[e]pyrrolo[1,2-a][1,4]diazacyclopentadecin-6-yl)carbamate]",> 8.26,> 8.26,,,
"CC[C@@H]1C[C@H](C)CC/C=C\[C@@H]2C[C@@]2(C(=O)NS(=O)(=O)C2CC2)NC(=O)[C@@H]2C[C@@H](Oc3ncc(N4CCOCC4)c4cc(OC)c(F)cc34)CN2C(=O)[C@H]1NC(=O)OC(C)(C)C [Compound 4240, tert-butyl ((2R,6S,7R,9R,13aS,14aR,16aS,Z)-14a-((cyclopropylsulfonyl)carbamoyl)-7-ethyl-2-((7-fluoro-6-methoxy-4-morpholinoisoquinolin-1-yl)oxy)-9-methyl-5,16-dioxo-1,2,3,5,6,7,8,9,10,11,13a,14,14a,15,16,16a-hexadecahydrocyclopropa[e]pyrrolo[1,2-a][1,4]diazacyclopentadecin-6-yl)carbamate]",8.30 to 9.00,8.30 to 9.00,,,pEC50 ([1]; read-out: LE_1a (EC50)): 8.91; pEC50 ([2]; read-out: LE_1b (EC50)): 8.96
CC[C@@H]1C[C@H](C)CC/C=C\[C@@H]2C[C@@]2(C(=O)NS(=O)(=O)C2(C)CC2)NC(=O)[C@@H]2C[C@@H](Oc3ncc(N(C)C)c4cc(OC)ccc34)CN2C(=O)[C@H]1NC(=O)OC(C)(C)C(F)(F)F [Compound 4241],,,8.30 to 9.00,8.30 to 9.00,
"COc1ccc2c(O[C@@H]3C[C@H]4C(=O)N[C@]5(C(=O)NS(=O)(=O)C6(C)CC6)C[C@H]5/C=C\CC[C@@H](C)C[C@@H](C)[C@H](NC(=O)OC(C)(C)C)C(=O)N4C3)cc(-c3ccc(OC(C)C)cc3)nc2c1 [Compound 4242, tert-butyl ((2R,6S,7R,9R,13aS,14aR,16aS,Z)-2-((2-(4-isopropoxyphenyl)-7-methoxyquinolin-4-yl)oxy)-7,9-dimethyl-14a-(((1-methylcyclopropyl)sulfonyl)carbamoyl)-5,16-dioxo-1,2,3,5,6,7,8,9,10,11,13a,14,14a,15,16,16a-hexadecahydrocyclopropa[e]pyrrolo[1,2-a][1,4]diazacyclopentadecin-6-yl)carbamate]",9.00 to 9.29,9.00 to 9.29,,,
CC[C@@H]1C[C@H](C)CC/C=C\[C@@H]2C[C@@]2(C(=O)NS(=O)(=O)C2CC2)NC(=O)[C@@H]2C[C@@H](Oc3ncc(N4CCOCC4)c4cc(OC)c(F)cc34)CN2C(=O)[C@H]1NC(=O)OC(C)(C)C(F)(F)F [Compound 4243],,,8.30 to 9.00,9.00 to 9.29,
CC[C@@H]1C[C@H](C)CC/C=C\[C@@H]2C[C@@]2(C(=O)NS(=O)(=O)C2(C)CC2)NC(=O)[C@@H]2C[C@@H](Oc3nc4cc(OC)ccc4nc3C(F)(F)F)CN2C(=O)[C@H]1NC(=O)OC(C)(C)C(F)(F)F [Compound 4244],,,8.30 to 9.00,8.30 to 9.00,
"CC[C@@H]1C[C@H](C)CC/C=C\[C@@H]2C[C@@]2(C(=O)NS(=O)(=O)C2(C)CC2)NC(=O)[C@@H]2C[C@@H](Oc3cc(-n4cccn4)nc4cc(OC)ccc34)CN2C(=O)[C@H]1NC(=O)OC(C)(C)C [Compound 4245, tert-butyl ((2R,6S,7R,9R,13aS,14aR,16aS,Z)-7-ethyl-2-((7-methoxy-2-(1H-pyrazol-1-yl)quinolin-4-yl)oxy)-9-methyl-14a-(((1-methylcyclopropyl)sulfonyl)carbamoyl)-5,16-dioxo-1,2,3,5,6,7,8,9,10,11,13a,14,14a,15,16,16a-hexadecahydrocyclopropa[e]pyrrolo[1,2-a][1,4]diazacyclopentadecin-6-yl)carbamate]",9.00 to 9.29,9.30 to 10.00,,,
CC[C@@H]1C[C@H](C)CC/C=C\[C@@H]2C[C@@]2(C(=O)NS(=O)(=O)C2(C)CC2)NC(=O)[C@@H]2C[C@@H](Oc3cc(-n4cccn4)nc4cc(OC)ccc34)CN2C(=O)[C@H]1NC(=O)OC(C)(C)C(F)(F)F [Compound 4246],,,8.30 to 9.00,9.00 to 9.29,
COc1ccc2c(O[C@@H]3C[C@H]4C(=O)N[C@]5(C(=O)NS(=O)(=O)C6(C)CC6)C[C@H]5/C=C\CC[C@@H](C)C[C@@H](C)[C@H](NC(=O)OC(C)(C)C(F)(F)F)C(=O)N4C3)cc(-c3ccc(OC(C)C)c(F)c3)nc2c1 [Compound 4247],,,8.30 to 9.00,8.30 to 9.00,
CCOc1cnc(O[C@@H]2C[C@H]3C(=O)N[C@]4(C(=O)NS(=O)(=O)C5CC5)C[C@H]4/C=C\CC[C@@H](C)C[C@@H](CC)[C@H](NC(=O)OC(C)(C)C(F)(F)F)C(=O)N3C2)c2ccc(OC)cc12 [Compound 4249],,,8.30 to 9.00,9.00 to 9.29,
"CC[C@@H]1C[C@H](C)CC/C=C\[C@@H]2C[C@@]2(C(=O)NS(=O)(=O)C2(C)CC2)NC(=O)[C@@H]2C[C@@H](Oc3nc4cc(OC)ccc4nc3C(C)C)CN2C(=O)[C@H]1NC(=O)OC(C)(C)C [Compound 4250, tert-butyl ((2R,6S,7R,9R,13aS,14aR,16aS,Z)-7-ethyl-2-((3-isopropyl-7-methoxyquinoxalin-2-yl)oxy)-9-methyl-14a-(((1-methylcyclopropyl)sulfonyl)carbamoyl)-5,16-dioxo-1,2,3,5,6,7,8,9,10,11,13a,14,14a,15,16,16a-hexadecahydrocyclopropa[e]pyrrolo[1,2-a][1,4]diazacyclopentadecin-6-yl)carbamate]",8.30 to 9.00,8.30 to 9.00,,,
CC[C@@H]1C[C@H](C)CC/C=C\[C@@H]2C[C@@]2(C(=O)NS(=O)(=O)C2(C)CC2)NC(=O)[C@@H]2C[C@@H](Oc3nc4cc(OC)ccc4nc3C(C)C)CN2C(=O)[C@H]1NC(=O)OC(C)(C)C(F)(F)F [Compound 4251],,,8.30 to 9.00,8.30 to 9.00,
CC[C@@H]1C[C@H](C)CC/C=C\[C@@H]2C[C@@]2(C(=O)NS(=O)(=O)C2CC2)NC(=O)[C@@H]2C[C@@H](Oc3ncc(OC)c4c(Cl)cccc34)CN2C(=O)[C@H]1NC(=O)OC(C)(C)C(F)(F)F [Compound 4252],,,8.30 to 9.00,9.00 to 9.29,
CC[C@@H]1C[C@H](C)CC/C=C\[C@@H]2C[C@@]2(C(=O)NS(=O)(=O)C2(C)CC2)NC(=O)[C@@H]2C[C@@H](Oc3ncc(OC)c4c(Cl)cccc34)CN2C(=O)[C@H]1NC(=O)OC(C)(C)C(F)(F)F [Compound 4253],,,8.30 to 9.00,9.00 to 9.29,
CC[C@@H]1C[C@H](C)CC/C=C\[C@@H]2C[C@@]2(C(=O)NS(=O)(=O)C2(C)CC2)NC(=O)[C@@H]2C[C@@H](Oc3ncc(N4CCN(S(C)(=O)=O)CC4)c4cc(OC)ccc34)CN2C(=O)[C@H]1NC(=O)OC(C)(C)C(F)(F)F [Compound 4254],,,8.30 to 9.00,9.00 to 9.29,
"CC[C@@H]1C[C@H](C)CC/C=C\[C@@H]2C[C@@]2(C(=O)NS(=O)(=O)C2(C)CC2)NC(=O)[C@@H]2C[C@@H](Oc3nc4cc(OC)ccc4nc3Cl)CN2C(=O)[C@H]1NC(=O)OC(C)(C)C [Compound 4256, tert-butyl ((2R,6S,7R,9R,13aS,14aR,16aS,Z)-2-((3-chloro-7-methoxyquinoxalin-2-yl)oxy)-7-ethyl-9-methyl-14a-(((1-methylcyclopropyl)sulfonyl)carbamoyl)-5,16-dioxo-1,2,3,5,6,7,8,9,10,11,13a,14,14a,15,16,16a-hexadecahydrocyclopropa[e]pyrrolo[1,2-a][1,4]diazacyclopentadecin-6-yl)carbamate]",9.00 to 9.29,9.30 to 10.00,,,
CC[C@@H]1C[C@H](C)CC/C=C\[C@@H]2C[C@@]2(C(=O)NS(=O)(=O)C2(C)CC2)NC(=O)[C@@H]2C[C@@H](Oc3nc4cc(OC)ccc4nc3Cl)CN2C(=O)[C@H]1NC(=O)OC(C)(C)C(F)(F)F [Compound 4257],,,7.46 to 8.30,9.00 to 9.29,
COc1ccc2nc(C(C)C)c(O[C@@H]3C[C@H]4C(=O)N[C@]5(C(=O)NS(=O)(=O)C6(C)CC6)C[C@H]5/C=C\CC[C@@H](C)C[C@@H](C)[C@H](NC(=O)OC(C)(C)C(F)(F)F)C(=O)N4C3)nc2c1 [Compound 4259],,,8.30 to 9.00,9.00 to 9.29,
"COc1ccc2nc(O[C@@H]3C[C@H]4C(=O)N[C@]5(C(=O)NS(=O)(=O)C6(C)CC6)C[C@H]5/C=C\CC[C@@H](C)C[C@@H](C)[C@H](NC(=O)OC(C)(C)C)C(=O)N4C3)c(-c3ccc(OC(C)C)cc3)nc2c1 [Compound 4260, tert-butyl ((2R,6S,7R,9R,13aS,14aR,16aS,Z)-2-((3-(4-isopropoxyphenyl)-6-methoxyquinoxalin-2-yl)oxy)-7,9-dimethyl-14a-(((1-methylcyclopropyl)sulfonyl)carbamoyl)-5,16-dioxo-1,2,3,5,6,7,8,9,10,11,13a,14,14a,15,16,16a-hexadecahydrocyclopropa[e]pyrrolo[1,2-a][1,4]diazacyclopentadecin-6-yl)carbamate]",8.30 to 9.00,8.30 to 9.00,,,
COc1ccc2nc(O[C@@H]3C[C@H]4C(=O)N[C@]5(C(=O)NS(=O)(=O)C6(C)CC6)C[C@H]5/C=C\CC[C@@H](C)C[C@@H](C)[C@H](NC(=O)OC(C)(C)C(F)(F)F)C(=O)N4C3)c(-c3ccc(OC(C)C)cc3)nc2c1 [Compound 4261],,,7.46 to 8.30,8.30 to 9.00,
CC[C@@H]1C[C@H](C)CC/C=C\[C@@H]2C[C@@]2(C(=O)NS(=O)(=O)C2CC2)NC(=O)[C@@H]2C[C@@H](Oc3nc4cc(OC)ccc4nc3O)CN2C(=O)[C@H]1NC(=O)OC(C)(C)C [Compound 4262],6.21 to 7.46,6.21 to 7.46,,,
